# In the supplement of paper PMC10331698:
# ± gives the standard deviation of the averaged measurements.
# Legend:
# Assay in all cases: level (log10 ratio to DMSO vehicle control); higher = higher biomarker level / cell amount than vehicle control
# [1] = compound: COC(=O)C(F)(F)C(F)(F)OC(F)(C(F)(F)F)C(F)(F)OC(F)=C(F)F [Methyl perfluoro(3-(1-ethenyloxypropan-2-yloxy)propanoate)]; details: in DMSO
# Method: (§1)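 BioMAP Diversity Plus panel of 12 human primary cell co-culture systems (3C, 4H, LPS, SAg, BT, BF4T, BE3C, CASM3C, HDF3CGF, KF3CT, MyoF, Mphg). Compounds were added 1 h before stimulation and left for 24 h (MyoF 48 h; BT 72 h for soluble read-outs or 6 d for IgG). Biomarkers were read by ELISA, cytotoxicity by SRB, PBMC viability and proliferation by Alamar Blue. Each well value was divided by the mean of 8 DMSO control wells on the same plate and log10 transformed; duplicate blinded samples were tested at 4 concentrations.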
# [2] = compound: FC(F)(F)C(F)(F)C(F)(F)C(F)(F)C(F)(F)C(F)(F)C(F)(F)I [1-Iodopentadecafluoroheptane]; details: in DMSO
# Method: as §1
# [3] = compound: FC(F)(F)C(F)(F)CNCC(F)(F)C(F)(F)F [Bis(1H,1H-perfluoropropyl)amine]; details: in DMSO
# Method: as §1
# [4] = compound: O=S(=O)(O)CCC(F)(F)C(F)(F)C(F)(F)C(F)(F)C(F)(F)C(F)(F)F [6:2 Fluorotelomer sulfonic acid]; details: in DMSO
# Method: as §1
# [5] = compound: NS(=O)(=O)C(F)(F)C(F)(F)C(F)(F)C(F)(F)C(F)(F)C(F)(F)F [Perfluorohexanesulfonamide]; details: in DMSO
# Method: as §1
# [6] = compound: NC(=O)C(F)(F)C(F)(F)C(F)(F)C(F)(F)F [Nonafluoropentanamide]; details: in DMSO
# Method: as §1
# [7] = compound: C=CC(=O)OCC(F)(F)C(F)(F)C(F)(F)COC(=O)C=C [1H,1H,5H,5H-Perfluoro-1,5-pentanediol diacrylate]; details: 6700 nM; in DMSO
# Method: as §1
# [8] = compound: OCC(F)(F)C(F)(F)C(F)(F)CO [Hexafluoroamylene glycol]; details: in DMSO
# Method: as §1
Test System,level (log10) ([1]; 6700 nM),level (log10) ([1]; 20000 nM),level (log10) ([2]; 6700 nM),level (log10) ([2]; 20000 nM),level (log10) ([3]; 6700 nM),level (log10) ([3]; 20000 nM),level (log10) ([3]; 60000 nM),level (log10) ([4]; 6700 nM),level (log10) ([4]; 20000 nM),level (log10) ([4]; 60000 nM),level (log10) ([5]; 6700 nM),level (log10) ([5]; 20000 nM),level (log10) ([5]; 60000 nM),level (log10) ([6]; 6700 nM),level (log10) ([6]; 20000 nM),level (log10) ([6]; 60000 nM),level (log10) [7],level (log10) ([8]; 6700 nM),level (log10) ([8]; 20000 nM),level (log10) ([8]; 60000 nM)
lMphg:M-CSF,-0.0325 ± 0.042,-0.0335 ± 0.035,-0.0015 ± 0.042,0.015 ± 0.0014,-0.007 ± 0.011,-0.0145 ± 0.022,0.0165 ± 0.021,0.0045 ± 0.0078,-0.023 ± 0.028,-0.0145 ± 0.0064,-0.051 ± 0.072,-0.113 ± 0.037,-0.119 ± 0.051,0.004 ± 0.0071,0.004 ± 0.017,0.018 ± 0.0014,-0.0245 ± 0.0035,-0.008 ± 0.0057,-0.009 ± 0.0071,0.006 ± 0.0014
3C:CD54/ICAM-1,-0.02 ± 0.0042,-0.0045 ± 0.016,-0.0115 ± 0.00071,0.014 ± 0.016,0 ± 0.016,0.001 ± 0.0085,0.006 ± 0.0014,-0.012 ± 0.021,-0.006 ± 0.021,-0.004 ± 0.011,0.013 ± 0.011,0.002 ± 0.0085,0.0065 ± 0.0078,-0.0155 ± 0.005,-0.0025 ± 0.0092,0.005 ± 0.021,-0.03 ± 0.014,-0.01 ± 0.0085,-0.0325 ± 0.005,-0.016 ± 0.023
BE3C:MMP-1,0.102 ± 0.025,0.176 ± 0.0092,-0.0205 ± 0.0078,-0.011,-0.0145 ± 0.026,-0.014 ± 0.011,0.0185 ± 0.049,-0.013 ± 0.017,-0.0105 ± 0.018,0.078 ± 0.054,0.0255 ± 0.015,0.0645 ± 0.0035,0.195 ± 0.02,0.003 ± 0.0071,0.052 ± 0.075,0.0795 ± 0.023,0.0115 ± 0.0078,-0.009 ± 0.017,-0.03 ± 0.0057,0.015 ± 0.025
HDF3CGF:CD54/ICAM-1,-0.0155 ± 0.0092,-0.029 ± 0.025,-0.0025 ± 0.0078,-0.0075 ± 0.0078,0.026 ± 0.018,0.033 ± 0.0085,0.0405 ± 0.018,-0.0085 ± 0.011,-0.007 ± 0.011,-0.029 ± 0.014,-0.005 ± 0.0028,-0.0155 ± 0.012,-0.0225 ± 0.005,-0.0065 ± 0.011,-0.01 ± 0.0085,0 ± 0.0042,-0.9415 ± 0.0078,-0.0065 ± 0.016,0.0015 ± 0.012,0.009
CASM3C:CD87/uPAR,-0.015 ± 0.027,-0.0165 ± 0.026,-0.019 ± 0.031,-0.0195 ± 0.018,-0.0255 ± 0.012,-0.0155 ± 0.019,-0.012 ± 0.035,0.003 ± 0.035,0.0145 ± 0.019,-0.0125 ± 0.012,-0.01 ± 0.0071,-0.028 ± 0.0028,-0.029 ± 0.033,-0.0215 ± 0.013,-0.023 ± 0.0014,0.0025 ± 0.00071,-0.0095 ± 0.022,0.003 ± 0.021,0.0125 ± 0.011,-0.0195 ± 0.035
HDF3CGF:PAI-I,0.107 ± 0.0099,0.0875 ± 0.00071,-0.044 ± 0.0071,-0.064 ± 0.023,-0.001 ± 0.0071,-0.0105 ± 0.013,0 ± 0.033,0.005 ± 0.0042,-0.0015 ± 0.0035,-0.01 ± 0.011,-0.0075 ± 0.083,0.081 ± 0.0071,-0.0365 ± 0.037,-0.014 ± 0.078,0.0005 ± 0.059,0.0125 ± 0.019,-0.85 ± 0.033,0.0045 ± 0.0035,0.006 ± 0.038,-0.0145 ± 0.0021
CASM3C:M-CSF,-0.0075 ± 0.036,0.01 ± 0.025,-0.0285 ± 0.019,0.0225 ± 0.052,0.006 ± 0.016,-0.005 ± 0.016,0.0115 ± 0.028,-0.011 ± 0.044,-0.002 ± 0.0085,0.002 ± 0.037,0.009 ± 0.035,0.0295 ± 0.012,0.119 ± 0.0035,-0.0105 ± 0.0021,-0.0075 ± 0.019,0.0195 ± 0.035,-0.056 ± 0.021,-0.0075 ± 0.013,-0.0195 ± 0.028,0.0135 ± 0.044
3C:CD62E/E-Selectin,-0.034 ± 0.011,-0.031 ± 0.013,-0.0085 ± 0.00071,-0.003 ± 0.011,-0.0115 ± 0.0092,-0.0105 ± 0.022,0.008 ± 0.024,-0.021 ± 0.034,0.003 ± 0.048,0.026 ± 0.038,-0.0065 ± 0.016,-0.034 ± 0.0014,-0.0595 ± 0.013,-0.014 ± 0.025,-0.017 ± 0.031,0.0085 ± 0.011,-0.135 ± 0.049,-0.0185 ± 0.037,-0.021 ± 0.025,-0.012 ± 0.0014
3C:CD141/Thrombomodulin,-0.036 ± 0.02,-0.028 ± 0.034,-0.0215 ± 0.071,-0.008 ± 0.081,0.0205 ± 0.043,0.0255 ± 0.04,0.046 ± 0.058,-0.0065 ± 0.05,-0.0475 ± 0.019,-0.0415 ± 0.033,-0.04 ± 0.023,-0.045 ± 0.02,0.0135 ± 0.033,-0.0635 ± 0.074,-0.0235 ± 0.0035,-0.069 ± 0.051,-0.124 ± 0.013,0.0175 ± 0.052,-0.01 ± 0.033,-0.011 ± 0.088
HDF3CGF:EGFR,0.0505 ± 0.054,-0.005 ± 0.12,0.011 ± 0.02,0.0135 ± 0.042,-0.0205 ± 0.06,-0.0615 ± 0.14,0.034 ± 0.025,-0.0455 ± 0.022,-0.0535 ± 0.025,-0.0305 ± 0.029,0.0525 ± 0.0064,0.043 ± 0.024,-0.103 ± 0.059,-0.067 ± 0.058,-0.048 ± 0.016,-0.002 ± 0.042,-0.016 ± 0.025,-0.028 ± 0.02,-0.0305 ± 0.04,-0.0035 ± 0.005
3C:CD142/Tissue Factor,0.0415 ± 0.064,0.0255 ± 0.0064,-0.0085 ± 0.015,-0.052 ± 0.076,0.038 ± 0.05,-0.0105 ± 0.094,0.0165 ± 0.11,-0.0065 ± 0.029,0.006 ± 0.021,0.0155 ± 0.064,0.0005 ± 0.0078,-0.0285 ± 0.032,-0.0365 ± 0.029,-0.049 ± 0.041,-0.0275 ± 0.04,-0.067 ± 0.044,-0.29 ± 0.1,0.014 ± 0.1,0.013 ± 0.062,0.009 ± 0.1
BE3C:SRB,-0.005 ± 0.0042,0.001 ± 0.0057,0.0095 ± 0.00071,0.0085 ± 0.0035,-0.002 ± 0.0057,-0.004,0.003 ± 0.0071,-0.005 ± 0.0099,-0.001 ± 0.0028,0.0055 ± 0.011,-0.0065 ± 0.00071,-0.022,-0.058 ± 0.0099,0.0035 ± 0.011,0.0065 ± 0.0035,-0.0005 ± 0.005,-0.0035 ± 0.0021,-0.002 ± 0.0014,-0.006 ± 0.0028,0.0075 ± 0.0021
3C:Proliferation,-0.056 ± 0.048,-0.111 ± 0.0092,0.0035 ± 0.013,-0.0125 ± 0.0078,0.008 ± 0.023,0.0205 ± 0.00071,-0.0025 ± 0.018,0.0055 ± 0.0021,0.012 ± 0.027,0.0305 ± 0.039,-0.0605 ± 0.011,-0.0635 ± 0.069,-0.334 ± 0.024,0.028 ± 0.018,0.016 ± 0.03,-0.0145 ± 0.021,-0.379 ± 0.12,-0.0035 ± 0.028,0.0075 ± 0.067,0.019 ± 0.03
HDF3CGF:Proliferation 72hr,0.076 ± 0.018,-0.163 ± 0.079,-0.0275 ± 0.005,-0.135 ± 0.02,0.002 ± 0.041,-0.008,0.028 ± 0.038,0.0015 ± 0.019,0.0725 ± 0.03,0.0405 ± 0.036,0.058 ± 0.03,0.0595 ± 0.0078,-0.267 ± 0.028,-0.0375 ± 0.005,-0.0485 ± 0.019,-0.048 ± 0.028,-0.689 ± 0.0099,-0.0185 ± 0.021,0.0055 ± 0.025,-0.008 ± 0.037
